This is an account of results in US9365576B2, “Pyrrolopyrrolidinone compounds” (Novartis AG, priority 2012, dated 2016).

Assay type in all cases: binding
The target of assay [1] is T1, human MDM2 protein (amino acids 2-188) (Homo sapiens (Human), UniProt Q00987). The assay is described as follows: TR-FRET assay, p53-MDM2 Assay 2 (modified). The following applies: TR-FRET; 0.1 nM MDM2, 0.1 nM Europium labeled streptavidin, Tecan genios Pro reader; read-out: IC50 p53-MDM2 Assay 2. An outline of the steps:
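Biotinylated human MDM2 (aa 2–188, 1.25 nM) was preincubated 15 min at room temperature with 0.625 nM Eu-streptavidin, then 10 nM Cy5-p53 peptide (aa 18–26) added for 15 min. TR-FRET ratio 665/620 nm (excitation 340 nm) was read; IC50 came from curve fitting.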
For orientation: Time-resolved FRET reads energy transfer from a long-lived donor to a nearby acceptor.

Assay [2] deals with T1, human MDM2 protein (amino acids 2-188). The assay is described as follows: TR-FRET assay, p53-MDM2 Assay 1. Particulars: 1.25 nM MDM2-biotinylated, 10 nM Cy5-p53 peptide. How it is done: (§1) The inhibition of p53-MDM2 and p53-MDM4 interactions is measured by time resolved fluorescence energy transfer (TR-FRET). Fluorescence energy transfer (or Foerster resonance energy transfer) describes an energy transfer between donor and acceptor fluorescent molecules. For this assay, human MDM2 protein (amino acids 2-188) and human MDM4 protein (amino acids 2-185), tagged with a C-terminal biotin moiety, are used in combination with a Europium labeled streptavidin (Perkin Elmer, Inc., Waltham, Mass., USA) serving as the donor fluorophore. The p53 derived, Cy5 labeled peptide Cy5-TFSDLWKLL (p53 aa18-26) is the energy acceptor. Upon excitation of the donor molecule at 340 nm, binding interaction between MDM2 or MDM4 and the p53 peptide induces energy transfer and enhanced response at the acceptor emission wavelength at 665 nm. Disruption of the formation of the p53-MDM2 or p53-MDM4 complex due to an inhibitor molecule binding to the p53 binding site of MDM2 or MDM4 results in increased donor emission at 620 nm. The ratiometric FRET assay readout is calculated from the raw data of the two distinct fluorescence signals measured in time resolved mode (fluorescence 665 nm/fluorescence 620 nm×1000).
(§2) After addition of 1.25 nM MDM2-biotinylated or 2.5 nM MDM4-biotinylated (internal preparations), and 0.625 nM Europium labeled streptavidin (Perkin Elmer), the solution is pre-incubated for 15 minutes at room temperature, then 10 nM Cy5-p53 peptide (internal preparation) is added before an incubation at room temperature for 15 minutes prior to reading the plate. For measurement of samples, a Victor II microplate reader (Perkin Elmer) is used with the following settings: Excitation 340 nm, Emission Donor 620 nm and Emission Acceptor 665 nm. IC50 values are calculated by curve fitting using XLfit. If not specified, reagents are purchased from Sigma-Aldrich Chemie GmBH, Buchs, Switzerland.
(§3) This assay was used to evaluate compounds displaying inhibition of p53-MDM2 interaction and p53-MDM4 interaction at IC50s of 0.005 to 50 μM (p53-MDM2 Assay 1 and p53-MDM4 Assay 1, respectively). For selected compounds displaying IC50s between […] on MDM2, a slightly modified assay is used with the following adaptations: 0.1 nM MDM2, 0.1 nM Europium labeled streptavidin and Tecan genios Pro is used as a microplate reader for the fluorescence measurements (p53-MDM2 Assay 2).

The target of assay [3] is human MDM4 protein (amino acids 2-185) (Homo sapiens (Human), UniProt O15151). The assay is described as follows: TR-FRET assay, p53-MDM4 Assay 1. Particulars: 2.5 nM MDM4-biotinylated, 10 nM Cy5-p53 peptide. The protocol:
as §1, §2, §3

T1 sequence (Q00987 2-188): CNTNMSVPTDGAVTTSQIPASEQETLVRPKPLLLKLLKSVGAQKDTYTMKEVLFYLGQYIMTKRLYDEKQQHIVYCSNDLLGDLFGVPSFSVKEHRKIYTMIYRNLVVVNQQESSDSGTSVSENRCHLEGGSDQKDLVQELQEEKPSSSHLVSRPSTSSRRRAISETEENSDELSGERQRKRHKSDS
human MDM4 protein (amino acids 2-185), sequence (O15151 2-185): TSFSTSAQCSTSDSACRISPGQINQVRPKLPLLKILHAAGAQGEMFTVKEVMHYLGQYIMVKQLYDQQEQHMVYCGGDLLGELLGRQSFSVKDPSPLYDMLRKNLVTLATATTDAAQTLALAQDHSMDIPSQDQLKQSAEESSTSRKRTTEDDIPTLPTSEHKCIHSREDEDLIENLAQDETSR

As to `COc1ncc(-c2cc3c(n2C(C)C)[C@H](c2ccc(Cl)cc2)N(c2cc(Cl)c(=O)n(C)c2)C3=O)c(OC)n1` [Example 121, (S)-5-(5-Chloro-1-methyl-6-oxo-1,6-dihydro-pyridin-3-yl)-6-(4-chloro-phenyl)-2-(2,4-dimethoxy-pyrimidin-5-yl)-1-isopropyl-5,6-dihydro-1H-pyrrolo[3,4-b]pyrrol-4-one], the concentration for half-maximal inhibition (IC50) – broadly, the concentration at which inhibition is half-maximal – was 0.087 nM in assay [1], 0.6 nM in assay [2] and 1060 nM in assay [3].

As for `COc1nc(N(C)C)ncc1-c1cc2c(n1C(C)C)[C@H](c1ccc(C#N)cc1)N(c1cc(Cl)c[nH]c1=O)C2=O` [Example 167, 4-[(S)-5-(5-Chloro-2-oxo-1,2-dihydro-pyridin-3-yl)-2-(2-dimethylamino-4-methoxy-pyrimidin-5-yl)-1-isopropyl-4-oxo-1,4,5,6-tetrahydro-pyrrolo[3,4-b]pyrrol-6-yl]-benzonitrile], the IC50 in assay [1] was 0.161 nM; in assay [2] it was 0.8 nM; in assay [3], 716 nM.

On to `CNC(=O)c1ccc(OC)c(-c2cc3c(n2C(C)C)C(c2ccc(Cl)cc2C)N(c2cccc(Cl)c2F)C3=O)c1` (centres unmarked) [Example 2, 3-[5-(3-Chloro-2-fluoro-phenyl)-6-(4-chloro-2-methyl-phenyl)-1-isopropyl-4-oxo-1,4,5,6-tetrahydro-pyrrolo[3,4-b]pyrrol-2-yl]-4-methoxy-N-methyl-benzamide], for which the half-inhibitory concentration (IC50) is 0.757 nM in assay [1], 2.9 nM in assay [2] and 2900 nM in assay [3].

As for `CNC(=O)N1CCC(N2C(=O)c3cc(-c4cnc(OC)nc4OC)n(C(C)C)c3C2c2ccc(Cl)cc2)CC1` (centres unmarked) [Example 107, 4-[6-(4-Chloro-phenyl)-2-(2,4-dimethoxy-pyrimidin-5-yl)-1-isopropyl-4-oxo-4,6-dihydro-1H-pyrrolo[3,4-b]pyrrol-5-yl]-piperidine-1-carboxylic acid methylamide], the values for the IC50 in assay [1], in assay [2] and in assay [3] were 2.69 nM, 3 nM and 3640 nM, respectively.

Take `CNC(=O)c1ccc(OC)c(-c2cc3c(n2C(C)C)C(c2ccc(Cl)cc2C)N([C@H]2CC[C@H](O)CC2)C3=O)c1` (stereo partly drawn) [Example 102, 3-[6-(4-Chloro-2-methyl-phenyl)-5-(trans-4-hydroxy-cyclohexyl)-1-isopropyl-4-oxo-1,4,5,6-tetrahydro-pyrrolo[3,4-b]pyrrol-2-yl]-4-methoxy-N-methyl-benzamide]: the figures for the IC50 in assay [1], in assay [2] and in assay [3] were 13.6 nM, 12.7 nM and 2380 nM, respectively.

On to `COc1ccc(F)cc1-c1cc2c(n1C(C)C)C(c1ccc(Cl)cc1C)N(c1cccc(Cl)c1F)C2=O` (centres unmarked) [Example 3, 5-(3-Chloro-2-fluoro-phenyl)-6-(4-chloro-2-methyl-phenyl)-2-(5-fluoro-2-methoxy-phenyl)-1-isopropyl-5,6-dihydro-1H-pyrrolo[3,4-b]pyrrol-4-one], for which the half-inhibitory concentration (IC50) came out at 6 nM in assay [2] and 54200 nM in assay [3].

Turning to `COc1ccc(C(=O)NOCCO)cc1-c1cc2c(n1C(C)C)C(c1ccc(Cl)cc1)N(c1cc(Cl)ccc1C)C2=O` (centres unmarked) [Example 37, 3-[5-(5-Chloro-2-methyl-phenyl)-6-(4-chloro-phenyl)-1-isopropyl-4-oxo-1,4,5,6-tetrahydro-pyrrolo[3,4-b]pyrrol-2-yl]-N-(2-hydroxy-ethoxy)-4-methoxy-benzamide], the concentration for half-maximal inhibition (IC50) in assay [1] was 0.125 nM; in assay [2], 1.1 nM; in assay [3] it was 327 nM.

For the molecule `COc1nc(N)ncc1-c1cc2c(n1C(C)C)C(c1ccc(Cl)cc1)N(C1CCOCC1)C2=O` (centres unmarked) [Example 78, 2-(2-Amino-4-methoxy-pyrimidin-5-yl)-6-(4-chloro-phenyl)-1-isopropyl-5-(tetrahydro-pyran-4-yl)-5,6-dihydro-1H-pyrrolo[3,4-b]pyrrol-4-one], the IC50 in assay [1] stood at 5.08 nM; in assay [2], 8.5 nM; in assay [3], 14000 nM.

As for `CNC(=O)c1ccc(OC)c(-c2cc3c(n2C(C)C)[C@H](c2ccc(Cl)cc2C)N(c2cccc(Cl)c2F)C3=O)c1` [Example 7, 3-[(S)-5-(3-Chloro-2-fluoro-phenyl)-6-(4-chloro-2-methyl-phenyl)-1-isopropyl-4-oxo-1,4,5,6-tetrahydro-pyrrolo[3,4-b]pyrrol-2-yl]-4-methoxy-N-methyl-benzamide], the results for the half-inhibitory concentration (IC50) in assay [1], in assay [2] and in assay [3] were 0.119 nM, 0.6 nM and 507 nM, respectively.

Take `COc1ncc(-c2cc3c(n2C(C)C)C(c2ccc(Cl)cc2C)N([C@H]2CC[C@H](O)CC2)C3=O)c(OC)n1` (stereo partly drawn) [Example 103, 6-(4-Chloro-2-methyl-phenyl)-2-(2,4-dimethoxy-pyrimidin-5-yl)-5-(trans-4-hydroxy-cyclohexyl)-1-isopropyl-5,6-dihydro-1H-pyrrolo[3,4-b]pyrrol-4-one]: the results for the IC50 in assay [1], in assay [2] and in assay [3] were 30.1 nM, 20.7 nM and 4710 nM, respectively.

`Cc1cc(N2C(=O)c3cc(-c4ccn(C)c(=O)c4)n(C4CC4)c3C2c2ccc(Cl)cc2)cn(C)c1=O` (centres unmarked) [Example 242, 6-(4-Chlorophenyl)-1-cyclopropyl-5-(1,5-dimethyl-6-oxo-1,6-dihydropyridin-3-yl)-2-(1-methyl-2-oxo-1,2-dihydropyridin-4-yl)-5,6-dihydropyrrolo[3,4-b]pyrrol-4(1H)-one]: the values for the IC50 in assay [2] and in assay [3] were 2040 nM and over 100000 nM, respectively.

Turning to `COc1ccccc1-c1cc2c(n1C(C)C)C(c1ccc(Cl)cc1C)N([C@H]1CC[C@H](O)CC1)C2=O` (stereo partly drawn) [Example 101, 6-(4-Chloro-2-methyl-phenyl)-5-(trans-4-hydroxy-cyclohexyl)-1-isopropyl-2-(2-methoxy-phenyl)-5,6-dihydro-1H-pyrrolo[3,4-b]pyrrol-4-one], the concentration for half-maximal inhibition (IC50) in assay [1] was 31.9 nM; in assay [2], 27 nM; in assay [3] it was 2990 nM.

For `COc1ncc(-c2cc3c(n2C2CC2)C(c2ccc(Cl)cc2)N(c2cc(C)c(=O)n(C)c2)C3=O)c(OC)n1` (centres unmarked) [Example 240, 6-(4-Chlorophenyl-1)-1-cyclopropyl-2-(2,4-dimethoxypyrimidin-5-yl)-5-(1,5-dimethyl-6-oxo-1,6-dihydropyridin-3-yl)-5,6-dihydropyrrolo[3,4-b]pyrrol-4(1H)-one], the IC50 in assay [2] is 33.3 nM; in assay [3], 77600 nM.

Consider `COc1nc(N)ncc1-c1cc2c(n1C(C)C)C(c1ccc(Cl)cc1)N(C1CCC(=O)N(C)C1)C2=O` (centres unmarked) [Example 108, 2-(2-Amino-4-methoxy-pyrimidin-5-yl)-6-(4-chloro-phenyl)-1-isopropyl-5-(1-methyl-6-oxo-piperidin-3-yl)-5,6-dihydro-1H-pyrrolo[3,4-b]pyrrol-4-one], for which the figures for the half-maximal inhibitory concentration (IC50) in assay [1], in assay [2] and in assay [3] were 3.7 nM, 3.3 nM and 9020 nM, respectively.

On to `COc1ncc(-c2cc3c(n2C(C)C)C(c2ccc(Cl)cc2C)N(C2CCOCC2)C3=O)c(OC)n1` (centres unmarked) [Example 105, 6-(4-Chloro-2-methyl-phenyl)-2-(2,4-dimethoxy-pyrimidin-5-yl)-1-isopropyl-5-(tetrahydro-pyran-4-yl)-5,6-dihydro-1H-pyrrolo[3,4-b]pyrrol-4-one], for which the concentration for half-maximal inhibition (IC50) was determined as 14.3 nM in assay [1], 10.2 nM in assay [2] and 6290 nM in assay [3].

Consider `COc1ncc(-c2cc3c(n2C2CC2)C(c2ccc(Cl)cc2)N(c2cc(C)c(=O)n(C)c2)C3=O)cn1` (centres unmarked) [Example 241, 6-(4-Chlorophenyl)-1-cyclopropyl-5-(1,5-dimethyl-6-oxo-1,6-dihydropyridin-3-yl)-2-(2-methoxypyrimidin-5-yl)-5,6-dihydropyrrolo[3,4-b]pyrrol-4(1H)-one], for which the IC50 in assay [2] was 3920 nM; in assay [3], over 100000 nM.
